Measured values reported in ChEMBL document CHEMBL3885861, “Open TG-GATES”.

Species on record: Rattus norvegicus
Assay: Open TG-GATES - Regimen: Daily Repeat
Format: toxicity, organism-based, Sprague-Dawley
Set-up: regimen Daily Repeat, gender Male, age 6 weeks
Settings: in vivo, po, route gavage; for APTT / Bas / Eos / Fbg / Hb / Ht / Lym / MCHC / MCV / Mono / Neu / PT / Plat / RBC / Ret / WBC: tissue Blood; for KIDNEY_L / KIDNEY_R / KIDNEY_TOTAL: tissue Kidney; for LIVER: tissue Liver; for ALP / ALT / AST / CRE / DBIL / GLC / IP / K / LDH / Na / PL / RALB / TBIL / TC / TG / TP / gamma-GTP: tissue Plasma
[1] = 0 mg/kg, 72 h, dose level Control, time 3 day
[2] = 0 mg/kg, […], dose level Control, time 7 day
[3] = 0 mg/kg, […], dose level Control, time 14 day
[4] = 0 mg/kg, […], dose level Control, time 28 day
[5] = 60 mg/kg, 72 h, dose level Low, time 3 day
[6] = 60 mg/kg, […], dose level Low, time 7 day
[7] = 60 mg/kg, […], dose level Low, time 14 day
[8] = 60 mg/kg, […], dose level Low, time 28 day

O=C1NC(=O)C(c2ccccc2)(c2ccccc2)N1 [PHENYTOIN]
TERMINAL_BW [1]: 217.7 g | APTT [1]: 21.2 s | Bas [1]: 0% | Eos [1]: 0.8% | Fbg [1]: 301.8 mg/dL | Hb [1]: 13.3 g/dL | Ht [1]: 39% | Lym [1]: 81.2% | MCHC [1]: 34.1% | MCV [1]: 64.2 fL | Mono [1]: 2.4% | Neu [1]: 15.2% | PT [1]: 16 s | Plat [1]: 126.3 x10_4/uL | RBC [1]: 608.6 x10_4/ul | Ret [1]: 7.4% | WBC [1]: 73.8 x10_2/uL | KIDNEY_L [1]: 1 g | KIDNEY_R [1]: 1 g | KIDNEY_TOTAL [1]: 1.9 g | LIVER [1]: 10.1 g | ALP [1]: 1688.4 IU/L | ALT [1]: 46.8 IU/L | AST [1]: 71 IU/L | CRE [1]: 0.1 mg/dL | DBIL [1]: 0 mg/dL | GLC [1]: 192.6 mg/dL | IP [1]: 7.6 mg/dL | K [1]: 4.1 meq/L | LDH [1]: 178.6 IU/L | Na [1]: 143 meq/L | PL [1]: 141.6 mg/dL | RALB [1]: 3.1 g/dL | TBIL [1]: 0.018 mg/dL | TC [1]: 73.4 mg/dL | TG [1]: 84 mg/dL | TP [1]: 5.7 g/dL | gamma-GTP [1]: 1 IU/L | TERMINAL_BW [2]: 247 g | TERMINAL_BW [3]: 296.2 g | TERMINAL_BW [4]: 378.5 g | APTT [2]: 20.8 s | Bas [2]: 0% | Eos [2]: 0.4% | Fbg [2]: 300.4 mg/dL | Hb [2]: 13.4 g/dL | Ht [2]: 39.2% | Lym [2]: 82.2% | MCHC [2]: 34.2% | MCV [2]: 62.4 fL | Mono [2]: 2.4% | Neu [2]: 13.6% | PT [2]: 16 s | Plat [2]: 125.6 x10_4/uL | RBC [2]: 628 x10_4/ul | Ret [2]: 5.6% | WBC [2]: 113.7 x10_2/uL | APTT [3]: 21.7 s | Bas [3]: 0% | Eos [3]: 1% | Fbg [3]: 290.6 mg/dL | Hb [3]: 14.1 g/dL | Ht [3]: 40.9% | Lym [3]: 81.4% | MCHC [3]: 34.4% | MCV [3]: 59.2 fL | Mono [3]: 2.2% | Neu [3]: 14.8% | PT [3]: 16.5 s | Plat [3]: 124.2 x10_4/uL | RBC [3]: 690 x10_4/ul | Ret [3]: 4.6% | WBC [3]: 135.4 x10_2/uL | APTT [4]: 23.3 s | Bas [4]: 0% | Eos [4]: 1% | Fbg [4]: 307.4 mg/dL | Hb [4]: 15.3 g/dL | Ht [4]: 42.8% | Lym [4]: 83.4% | MCHC [4]: 35.7% | MCV [4]: 58.7 fL | Mono [4]: 1.6% | Neu [4]: 13.4% | PT [4]: 15.8 s | Plat [4]: 116.4 x10_4/uL | RBC [4]: 728.8 x10_4/ul | Ret [4]: 3.1% | WBC [4]: 147.1 x10_2/uL | KIDNEY_L [2]: 1 g | KIDNEY_R [2]: 1 g | KIDNEY_TOTAL [2]: 2.1 g | KIDNEY_L [3]: 1.2 g | KIDNEY_R [3]: 1.2 g | KIDNEY_TOTAL [3]: 2.4 g | KIDNEY_L [4]: 1.3 g | KIDNEY_R [4]: 1.3 g | KIDNEY_TOTAL [4]: 2.6 g | LIVER [2]: 11.2 g | LIVER [3]: 12.7 g | LIVER [4]: 15.6 g | ALP [2]: 1443 IU/L | ALT [2]: 34.8 IU/L | AST [2]: 65 IU/L | CRE [2]: 0.2 mg/dL | DBIL [2]: 0.004 mg/dL | GLC [2]: 197.2 mg/dL | IP [2]: 7.7 mg/dL | K [2]: 4.6 meq/L | LDH [2]: 197 IU/L | Na [2]: 141.6 meq/L | PL [2]: 140 mg/dL | RALB [2]: 2.9 g/dL | TBIL [2]: 0.024 mg/dL | TC [2]: 67.4 mg/dL | TG [2]: 131.4 mg/dL | TP [2]: 5.6 g/dL | gamma-GTP [2]: 0.8 IU/L | ALP [3]: 1493.2 IU/L | ALT [3]: 40 IU/L | AST [3]: 63 IU/L | CRE [3]: 0.2 mg/dL | DBIL [3]: 0 mg/dL | GLC [3]: 199.4 mg/dL | IP [3]: 7.2 mg/dL | K [3]: 4.3 meq/L | LDH [3]: 136.4 IU/L | Na [3]: 141.4 meq/L | PL [3]: 147.4 mg/dL | RALB [3]: 3 g/dL | TBIL [3]: 0.012 mg/dL | TC [3]: 68.4 mg/dL | TG [3]: 154 mg/dL | TP [3]: 5.6 g/dL | gamma-GTP [3]: 1.8 IU/L | ALP [4]: 1238 IU/L | ALT [4]: 38.8 IU/L | AST [4]: 61.8 IU/L | CRE [4]: 0.3 mg/dL | DBIL [4]: 0.004 mg/dL | GLC [4]: 189.6 mg/dL | IP [4]: 6.3 mg/dL | K [4]: 3.9 meq/L | LDH [4]: 151.4 IU/L | Na [4]: 142.4 meq/L | PL [4]: 139.6 mg/dL | RALB [4]: 3 g/dL | TBIL [4]: 0.022 mg/dL | TC [4]: 67.8 mg/dL | TG [4]: 143.4 mg/dL | TP [4]: 6.1 g/dL | gamma-GTP [4]: 1.2 IU/L | TERMINAL_BW [5]: 222.2 g | APTT [5]: 21.7 s | Bas [5]: 0% | Eos [5]: 0.6% | Fbg [5]: 311.4 mg/dL | Hb [5]: 13 g/dL | Ht [5]: 38.1% | Lym [5]: 81.6% | MCHC [5]: 34.1% | MCV [5]: 65.7 fL | Mono [5]: 1.4% | Neu [5]: 15.2% | PT [5]: 15.7 s | Plat [5]: 130.4 x10_4/uL | RBC [5]: 581.8 x10_4/ul | Ret [5]: 7.7% | WBC [5]: 82.9 x10_2/uL | KIDNEY_L [5]: 1 g | KIDNEY_R [5]: 1 g | KIDNEY_TOTAL [5]: 2 g | LIVER [5]: 10.7 g | ALP [5]: 1528 IU/L | ALT [5]: 38 IU/L | AST [5]: 65.8 IU/L | CRE [5]: 0.1 mg/dL | DBIL [5]: 0 mg/dL | GLC [5]: 185.4 mg/dL | IP [5]: 7.5 mg/dL | K [5]: 4.3 meq/L | LDH [5]: 213.4 IU/L | Na [5]: 143 meq/L | PL [5]: 156 mg/dL | RALB [5]: 3.1 g/dL | TBIL [5]: 0.01 mg/dL | TC [5]: 81.4 mg/dL | TG [5]: 104.2 mg/dL | TP [5]: 5.8 g/dL | gamma-GTP [5]: 1.4 IU/L | TERMINAL_BW [6]: 250.5 g | TERMINAL_BW [7]: 308.9 g | TERMINAL_BW [8]: 366.2 g | APTT [6]: 22.8 s | Bas [6]: 0% | Eos [6]: 1% | Fbg [6]: 314.8 mg/dL | Hb [6]: 13.7 g/dL | Ht [6]: 40.7% | Lym [6]: 80% | MCHC [6]: 33.6% | MCV [6]: 62.6 fL | Mono [6]: 2.6% | Neu [6]: 15.8% | PT [6]: 15.6 s | Plat [6]: 124.8 x10_4/uL | RBC [6]: 650.8 x10_4/ul | Ret [6]: 6.1% | WBC [6]: 113.1 x10_2/uL | APTT [7]: 22.6 s | Bas [7]: 0% | Eos [7]: 0.8% | Fbg [7]: 277.4 mg/dL | Hb [7]: 13.9 g/dL | Ht [7]: 40.8% | Lym [7]: 80.6% | MCHC [7]: 34.2% | MCV [7]: 60.8 fL | Mono [7]: 2.2% | Neu [7]: 15.6% | PT [7]: 16.2 s | Plat [7]: 104.4 x10_4/uL | RBC [7]: 670.4 x10_4/ul | Ret [7]: 5% | WBC [7]: 136.7 x10_2/uL | APTT [8]: 22.8 s | Bas [8]: 0% | Eos [8]: 0.8% | Fbg [8]: 298.8 mg/dL | Hb [8]: 15.5 g/dL | Ht [8]: 43.8% | Lym [8]: 86.8% | MCHC [8]: 35.5% | MCV [8]: 57.3 fL | Mono [8]: 1.8% | Neu [8]: 10% | PT [8]: 16 s | Plat [8]: 107 x10_4/uL | RBC [8]: 764.6 x10_4/ul | Ret [8]: 2.6% | WBC [8]: 141.5 x10_2/uL | KIDNEY_L [6]: 1.1 g | KIDNEY_R [6]: 1.1 g | KIDNEY_TOTAL [6]: 2.1 g | KIDNEY_L [7]: 1.3 g | KIDNEY_R [7]: 1.3 g | KIDNEY_TOTAL [7]: 2.6 g | KIDNEY_L [8]: 1.3 g | KIDNEY_R [8]: 1.3 g | KIDNEY_TOTAL [8]: 2.6 g | LIVER [6]: 11.8 g | LIVER [7]: 14.1 g | LIVER [8]: 14.2 g | ALP [6]: 1555.8 IU/L | ALT [6]: 40.4 IU/L | AST [6]: 64.8 IU/L | CRE [6]: 0.2 mg/dL | DBIL [6]: 0 mg/dL | GLC [6]: 184.6 mg/dL | IP [6]: 7 mg/dL | K [6]: 4.4 meq/L | LDH [6]: 169.2 IU/L | Na [6]: 141.8 meq/L | PL [6]: 148.2 mg/dL | RALB [6]: 3 g/dL | TBIL [6]: 0.034 mg/dL | TC [6]: 73.6 mg/dL | TG [6]: 108 mg/dL | TP [6]: 5.6 g/dL | gamma-GTP [6]: 1.2 IU/L | ALP [7]: 1361 IU/L | ALT [7]: 40.4 IU/L | AST [7]: 63.2 IU/L | CRE [7]: 0.2 mg/dL | DBIL [7]: 0.008 mg/dL | GLC [7]: 186.8 mg/dL | IP [7]: 7.6 mg/dL | K [7]: 4.2 meq/L | LDH [7]: 176.6 IU/L | Na [7]: 142.6 meq/L | PL [7]: 152.4 mg/dL | RALB [7]: 3.1 g/dL | TBIL [7]: 0.012 mg/dL | TC [7]: 74.2 mg/dL | TG [7]: 129.6 mg/dL | TP [7]: 5.5 g/dL | gamma-GTP [7]: 1.2 IU/L | ALP [8]: 1279.2 IU/L | ALT [8]: 41 IU/L | AST [8]: 64.4 IU/L | CRE [8]: 0.2 mg/dL | DBIL [8]: 0.004 mg/dL | GLC [8]: 181.2 mg/dL | IP [8]: 5.8 mg/dL | K [8]: 3.9 meq/L | LDH [8]: 231.2 IU/L | Na [8]: 143.4 meq/L | PL [8]: 131.6 mg/dL | RALB [8]: 3.1 g/dL | TBIL [8]: 0.028 mg/dL | TC [8]: 66.6 mg/dL | TG [8]: 107.4 mg/dL | TP [8]: 6.1 g/dL | gamma-GTP [8]: 1.4 IU/L
